Reference: US20240390490A1, “PHARMACEUTICAL COMPOSITIONS FOR THE TREATMENT OF CANCERS” (Rutgers, The State University of New Jersey, priority 2021, published 2024)

Tests used:
Type in all cases: in vivo, rat
[1] = test system: NK cells and macrophages in tumor tissues; experiment: Immunocytochemistry and flow cytometry of tumor-infiltrating immune cells
Description: (§1) Thin paraffin sections (5 μm) of tumors were stained using the ABC Elite Vectastain Kit (Vector Labs) according to the manufacturer's instructions using various primary antibodies. Details of all primary antibodies used are described above. In addition, cell proliferation-associated antigen (Ki-67; 1:200) were purchased from Abcam. After the primary antibody incubation and PBS wash, sections were incubated with peroxidase-coupled anti-rabbit Ig ImmPRESS reagent (Vector Laboratories, Inc.). Antigen localization was achieved by using the 3,3′-diaminobenzidine-peroxidase reaction, and sections were dehydrated, and cover slipped. To evaluate the immunohistochemical staining, sections were photographed using a Nikon-TE 2000 inverted microscope. Intensity of staining was categorized as negative and strongly positive (27). Brown-stained spots are immuno positive cells. Data are means±SEM obtained from 3 serial sections of 5 to 6 animals in each group.
(§2) Tumor-infiltrating immune cells were collected from MDA-MB-231 cell xenograft tumors to examine and compare the immune cell population among control and drug-treated animals. Briefly, single-cell suspensions of tumor tissue were achieved by mincing the tissue with a scalpel blade using a crisscross method, ground with 1-ml of ACK lysing buffer to remove red blood cells. The cell suspensions were filtered through a 70-micron sieve and then washed with PBS. Cells from the tumor were collected and dispersed with 100 μl of PBS and stained by the addition of fluorescence-conjugated antibodies. For flow cytometry experiments, single-cell suspension derived from tumors, PBMC, and splenocytes were used to characterize the immune cell population. Fluorophore-conjugated antibodies were used to detect surface markers of specific cell types and markers are as follows: for NK cells (CD161a (10/78)), tissue macrophage (RT1B (OX-6)), dendritic cells (CD103 (OX-62)), peripheral monocytes (CD11b (ED8)), B cells (CD45RA (OX-33)), and DAPI (Sigma) was used to exclude dead cells.
Immune cells from the tumor, PBMC, and splenocyte samples were examined by following the gating strategy as described below. First, side scatter area (SSC-A) versus forward scatter area (FSC-A) were used to exclude cellular debris, then forward scatter height (FSC-H) versus FSC-A were used to select single cells. Single cells were sub-gated using DAPI viability dye and a further live cell population was used to select markers. Expression of a particular cell surface marker in a specific population of cells was identified and represented as single parameter histograms. Unstained cells and compensation beads (BD Biosciences, CA) were used to set voltages and create single stain negative and positive controls. Additional negative controls (isotype control and fluorescence minus one (FMO)) were also used to determine any non-specific binding in the present study. The data collected from each sample were exported and analyzed using FlowJo™ version 10.7.

[2] = test system: MDA-MB-231-cell-derived xenografts; experiment: Histopathology, immunohistochemistry and western blot of xenograft tumors; settings: for level of E-cadherin in tumors / level of N-cadherin in tumors / levels of Snail, Slug, and Twist in tumors: immunoblotting; for level of CC3 in tumor tissue / levels of Bcl-xL and Bcl-2 in tumor tissue: western blot
Description: At the end of the experiment, a portion of tumor tissues was fixed in 10% neutral buffered formalin overnight and embedded in paraffin, was cut into 5-μm-thick sections, and stained with H&E according to previous publications (8). Representative areas of tumor were analyzed for the presence of tumor cells and photographs were captured under a light microscope (20× magnification) as previously described.
For protein analyses, tumor tissues from in vivo experiments, enriched NK cells from the spleen, and NK-92 MI cancer cell co-incubated samples were lysed with a buffer containing protease and phosphatase inhibitors (25 mM Tris-HCl, pH 7.4; 150 mM NaCl; 1% Nonidet P-40; 1 mM EDTA; and 5% glycerol with Pierce Halt Protease Inhibitor). Protein ([…]) from total lysate was loaded and separated on a 4-20% SDS-PAGE and transferred overnight to polyvinylidene difluoride membranes. Membranes were incubated with primary Ab for 12 hours at 4° C. in blocking buffer, 5% w/v nonfat dry milk in TBS, and 0.1% Tween 20. The following primary antibodies were purchased from Santa Cruz Biotechnology (Santa Cruz, CA): anti-perforin rabbit polyclonal (1:250), anti-granzyme B mouse monoclonal (1:200), anti-IFN-γ mouse monoclonal (1:250), anti-Snail (1:200), anti-Slug (1:200), and anti-Twist. Anti-E-cadherin (1:250), anti-N-cadherin (1:250), and anti-NKG2D goat polyclonal (1:500) were all from Abcam (Cambridge, MA). Membranes were washed and incubated with peroxidase-conjugated secondary Abs (1:5000; Vector Laboratories) for 1 hour at room temperature. Membranes were incubated with ECL western blot chemiluminescence reagent (Pierce) and exposed to x-ray film, which was developed, and densitometry was performed using Image J analysis software (National Institutes of Health). Each protein was normalized to corresponding intensities for β-actin.
as §1

[3] = test system: NK cells, monocytes and macrophages in PBMC and spleen; experiment: Flow cytometry of immune cells in PBMC and spleen of xenografted rats; settings: for NK cell numbers in PBMC and spleen: CD161a+ NK cells, flow cytometry
Description: Peripheral blood mononuclear cells (PBMC) from control and drug-treated rats were isolated from freshly obtained EDTA whole blood by density gradient purification (Lymphoprep™, Stemcell Technologies™, Vancouver, BC, Canada) using 15 mL SepMate™ tubes (Stemcell Technologies™) as per the manufacture's protocol. The pelleted cells (PBMC) were counted in a hemocytometer and assayed for viability by the trypan blue dye exclusion method. PBMC cell pellets from 3 animals in each group were pooled, washed three times with PBS, and finally resuspended in 2 ml RPMI medium containing 10% heat-inactivated FBS (HI-FBS) and used for NK cell cytotoxicity. Aliquots of PBMC were frozen down at −80° C. by resuspending cells in freezing media containing HI-FBS and 10% DMSO in aliquots of 5-10×10^6 cells/mL using Nalgene Mr. Frosty Cryo 1° C. freezing containers (Thermo Fisher Scientific) before storage in liquid nitrogen. For flow cytometric analysis, frozen PBMC was thawed and resuspended in RPMI-1640 and was evaluated for viability by trypan blue, and all were […], then washed with PBS before starting flow cytometer experiments.
as §2
Immune cells from the tumor, PBMC, and splenocyte samples were examined by following the gating strategy as described below. First, side scatter area (SSC-A) versus forward scatter area (FSC-A) were used to exclude cellular debris, then forward scatter height (FSC-H) versus FSC-A were used to select single cells. […] Additional negative controls (isotype control and fluorescence minus one (FMO)) were also used to determine any non-specific binding in the present study. The data collected from each sample were exported and analyzed using FlowJo™ version 10.7.

[4] = test system: plasma cytokines and chemokines; experiment: Plasma cytokines multiplex immunoassay
Text: After the end of the drug treatment period, plasma samples from control and drug-treated rats were processed and used for cytokine detection. Cytokines were quantified in plasma samples using the ProcartaPlex multiplex immunoassay technology. These immunoassays are bead-based assays for protein quantification based on the principles of a sandwich Elisa with the use of Luminex® xMAP® (multianalyte profiling) technology. The Rat Cytokine & Chemokine 22-plex ProcartaPlex Panel is a preconfigured multiplex immunoassay kit that measures 22 protein targets using Luminex xMAP technology. Plasma samples were diluted with universal assay buffer (1:1) and added into a 96-well flat bottom plate to the magnetic beads. The plate was sealed and covered before incubation of 2 hours at room temperature with 500 rpm shaking. After inserting the plate into the handheld magnetic plate washer, the plate was washed 3 times using a specific wash buffer. 25 μL of detection antibody mixture was to the plate and incubated it for 30 minutes at room temperature at 500 rpm. The plate was washed 3 times. Then 50 μL of SAPE solution were added to the plate before a novel 30-minute incubation at room temperature at 500 rpm. The plate was washed 3 times. Finally, 120 μL of reading buffer were add to the plate and incubated for 5 minutes at room temperature at 500 rpm before reading and analyzing with the Luminex™ instrument (MAGPIX® xPONENT®, R&D System, ThermoFisher). Median fluorescence index (MFI) was calculated and presented.

CC1(C)SSC(C)(C)[C@@H](NC(=O)[C@@H](N)Cc2ccc(O)cc2)C(=O)NCC(=O)N[C@@H](Cc2ccccc2)C(=O)N[C@H]1C(=O)O [DPDPE, (D-Pen^2, D-Pen^5)-enkephalin]
percentage of CD161+ NK cells in the tumor tissues [1]: increased | percentage of CD163+ macrophages in the tumor tissues [1]: decreased | level of E-cadherin in tumors [2]: increase | level of N-cadherin in tumors [2]: decrease | levels of Snail, Slug, and Twist in tumors [2]: reduced | level of CC3 in tumor tissue [2]: increased | levels of Bcl-xL and Bcl-2 in tumor tissue [2]: decreased | NK cell numbers in PBMC and spleen [3]: increased | chemokines RANTES and MCP-1 [4]: inhibited

O=C1CC[C@@]2(O)[C@H]3Cc4ccc(O)c5c4[C@@]2(CCN3CC2CC2)[C@H]1O5 [NTX, 17-(cyclopropylmethyl)-4,5α-epoxy-3,14-dihydroxymorphinan-6-one]
percentage of CD161+ NK cells in the tumor tissues [1]: increased | percentage of CD163+ macrophages in the tumor tissues [1]: decreased | level of CC3 in tumor tissue [2]: increased | levels of Bcl-xL and Bcl-2 in tumor tissue [2]: decreased | NK cell numbers in PBMC and spleen [3]: increased | IFN-γ [4]: elevated | chemokines RANTES and MCP-1 [4]: inhibited

CC(C)NCC(O)COc1cccc2ccccc12 (stereo not shown) [PRO, propranolol]
percentage of CD161+ NK cells in the tumor tissues [1]: increased | percentage of CD163+ macrophages in the tumor tissues [1]: decreased | level of E-cadherin in tumors [2]: increase | level of N-cadherin in tumors [2]: decrease | levels of Snail, Slug, and Twist in tumors [2]: reduced | level of CC3 in tumor tissue [2]: increased | levels of Bcl-xL and Bcl-2 in tumor tissue [2]: decreased | NK cell numbers in PBMC and spleen [3]: increased | macrophage numbers in spleen ([3]; RT1B+ macrophages): reduced | IFN-γ [4]: elevated | chemokines RANTES and MCP-1 [4]: inhibited | inflammatory cytokines and chemokines G-CSF/CSF-3, IL-1 alpha, IL-10, IL-6, IL-5, Gro-α, TNF-α, MCP-3, and IL-17A [4]: inhibited
